Results reported in ChEMBL document CHEMBL1201862, “PubChem BioAssay data set” (2004).
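Dose response: 5 concentrations. Exposure: 48 h. Format: 96-well plates. Endpoint: linear interpolation; highest concentration if not reached. The concentration for 50% growth inhibition is given as GI50.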 Calls of active or inactive are those of the source. Cut-off read from the data, not from the text of the source: active = GI50 up to about 1.1 µM and inactive = higher.

Experiments:
Assay in all cases: NCI tumour cell line growth inhibition, 48 h
786-0 = test system: 786-0
A549 = test system: A549
COLO 205 = test system: COLO 205
HOP-92 = test system: HOP-92
Hs-578T = test system: Hs-578T
IGROV-1 = test system: IGROV-1
KM12 = test system: KM12
LOX IMVI = test system: LOX IMVI
MDA-MB-231 = test system: MDA-MB-231
Malme-3M = test system: Malme-3M
NCI-H226 = test system: NCI-H226
NCI-H522 = test system: NCI-H522
NCI/ADR-RES = test system: NCI/ADR-RES
OVCAR-4 = test system: OVCAR-4
OVCAR-5 = test system: OVCAR-5
TK-10 = test system: TK-10
U-251 = test system: U-251
UACC-62 = test system: UACC-62
UO-31 = test system: UO-31
MOLT-4 = test system: MOLT-4

Measured: GI50

O=C(CON1C(=O)c2ccccc2C1=O)c1ccccc1
inactive: 786-0 32.4 µM | A549 > 100 µM | COLO 205 56.4 µM | HOP-92 58.6 µM | Hs-578T > 100 µM | IGROV-1 > 100 µM | KM12 > 100 µM | LOX IMVI 35.6 µM | MDA-MB-231 > 100 µM | Malme-3M 21.1 µM | NCI-H226 > 100 µM | NCI-H522 17.7 µM | NCI/ADR-RES > 100 µM | OVCAR-4 77.8 µM | OVCAR-5 > 100 µM | TK-10 20.7 µM | U-251 > 100 µM | UACC-62 > 100 µM | UO-31 21.3 µM

O=C(O)C1CCN(Cc2oc(CO)cc(=O)c2O)C1 (stereo unspecified)
inactive: 786-0 > 100 µM | A549 > 100 µM | COLO 205 > 100 µM | HOP-92 > 100 µM | Hs-578T > 100 µM | IGROV-1 > 100 µM | KM12 > 100 µM | LOX IMVI > 100 µM | MDA-MB-231 > 100 µM | MOLT-4 > 100 µM | Malme-3M > 100 µM | NCI-H226 > 100 µM | NCI-H522 > 100 µM | NCI/ADR-RES > 100 µM | OVCAR-4 > 100 µM | OVCAR-5 > 100 µM | TK-10 > 100 µM | U-251 > 100 µM | UACC-62 > 100 µM | UO-31 > 100 µM

C[C@@H](CO)C1=CC(C#C[Si](C)(C)C)N(C(=O)Oc2ccccc2)c2ccccc21 (stereo partly specified)
inactive: 786-0 17.2 µM | A549 20.9 µM | COLO 205 23.8 µM | HOP-92 11.7 µM | Hs-578T 25.1 µM | IGROV-1 17.1 µM | KM12 14.2 µM | LOX IMVI 17.6 µM | MDA-MB-231 17.7 µM | MOLT-4 3.29 µM | NCI-H226 20 µM | NCI-H522 16.8 µM | NCI/ADR-RES 11.8 µM | OVCAR-4 12.6 µM | OVCAR-5 19.8 µM | TK-10 31.1 µM | U-251 18.3 µM | UACC-62 9.1 µM | UO-31 14.7 µM

COc1ccc2c(c1)-c1[nH]c3ccccc3c1CC2
inactive: 786-0 16.4 µM | A549 15.2 µM | COLO 205 16.6 µM | HOP-92 17.1 µM | Hs-578T 15.4 µM | IGROV-1 3.9 µM | KM12 13.6 µM | LOX IMVI 18.2 µM | MDA-MB-231 16.8 µM | MOLT-4 12.1 µM | Malme-3M 12.4 µM | NCI-H226 13.3 µM | NCI-H522 6.31 µM | NCI/ADR-RES 11.9 µM | OVCAR-4 17.1 µM | OVCAR-5 15.7 µM | TK-10 16.1 µM | U-251 16.6 µM | UACC-62 15.6 µM | UO-31 15.5 µM

CC(=O)N1c2ccccc2[C@H]2CCc3c([nH]c4ccccc34)[C@H]21
inactive: 786-0 15 µM | A549 17.2 µM | COLO 205 13.2 µM | HOP-92 14.4 µM | Hs-578T 21.9 µM | IGROV-1 4.33 µM | KM12 11.1 µM | LOX IMVI 11.6 µM | MDA-MB-231 11.4 µM | MOLT-4 11.2 µM | Malme-3M 14.1 µM | NCI-H226 13.9 µM | NCI-H522 20.4 µM | NCI/ADR-RES 23.3 µM | OVCAR-5 26.9 µM | TK-10 41.5 µM | U-251 12.7 µM | UACC-62 12.3 µM | UO-31 6.31 µM

c1ccc(C2(c3ccccc3)S/C(=C3/SC(c4ccccc4)(c4ccccc4)c4ccccc43)c3ccccc32)cc1
inactive: 786-0 > 100 µM | A549 > 100 µM | COLO 205 > 100 µM | HOP-92 > 100 µM | Hs-578T > 100 µM | IGROV-1 > 100 µM | KM12 > 100 µM | LOX IMVI > 100 µM | MDA-MB-231 > 100 µM | MOLT-4 > 100 µM | Malme-3M > 100 µM | NCI-H226 > 100 µM | NCI-H522 > 100 µM | NCI/ADR-RES > 100 µM | OVCAR-4 > 100 µM | OVCAR-5 > 100 µM | TK-10 > 100 µM | U-251 > 100 µM | UACC-62 > 100 µM | UO-31 > 100 µM

Brc1ccc(CCNCCN2CCCCC2)cc1
inactive: 786-0 14.1 µM | A549 16.4 µM | COLO 205 12.9 µM | HOP-92 10.8 µM | Hs-578T 20.3 µM | IGROV-1 17.1 µM | KM12 16.6 µM | LOX IMVI 14.1 µM | MDA-MB-231 8.05 µM | MOLT-4 62.1 µM | Malme-3M 17.7 µM | NCI-H226 37.8 µM | NCI-H522 16.4 µM | NCI/ADR-RES 21.1 µM | OVCAR-4 19.3 µM | OVCAR-5 17 µM | TK-10 15.5 µM | U-251 18.4 µM | UO-31 12.2 µM
